Laboratory results reported in patent US11053204B2, “Pyrimidinyloxy benzene derivatives as herbicides” (FMC Corporation, priority 2015, dated 2021).

Columns and labels:
Format in all cases: in vivo
[1] = system: sedge, umbrella (small-flower umbrella sedge, Cyperus difformis); assay: Test B flooded paddy test, plant response rating; details: Cyperus difformis, 312 h; 250 g ai/ha; Flood; scale of 0 to 100 where 0 is no effect and 100 is complete control; 13 to 15 days
Summary of the method: (§1)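 Under a constant 3 cm flood, test compounds went directly into the paddy water. Following 13 to 15 days of greenhouse growth, treated species and controls were compared by eye.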

[2] = system: barnyardgrass (Echinochloa crus-galli); assay: Test B flooded paddy test, plant response rating; details: Echinochloa crus-galli, 312 h; 250 g ai/ha; Flood; scale of 0 to 100 where 0 is no effect and 100 is complete control; 13 to 15 days
Summary of the method: as §1

[3] = system: rice (Oryza sativa); assay: Test B flooded paddy test, plant response rating; details: Oryza sativa, 312 h; 250 g ai/ha; Flood; scale of 0 to 100 where 0 is no effect and 100 is complete control; 13 to 15 days
Summary of the method: as §1

[4] = system: oilseed rape (Brassica napus); assay: Test C preemergence, plant response rating; details: scale 0 to 100; for Oilseed Rape plant response rating: preemergence
Summary of the method: (§2)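 Both timings shared one formulation, a non-phytotoxic solvent mixture with surfactant, and a greenhouse period of 13 to 15 d. Preemergence used seeded loam/sand or silt loam soil, postemergence used 2 to 18 cm plants; visual ratings ran from 0 (no effect) to 100 (complete control).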

[5] = system: corn (Zea mays); assay: Test C preemergence, plant response rating; details: scale 0 to 100; for Corn plant response rating: preemergence
Summary of the method: as §2

[6] = system: velvetleaf (Abutilon theophrasti); assay: Test C preemergence, plant response rating; details: scale 0 to 100; for Velvetleaf plant response rating: preemergence
Summary of the method: as §2

[7] = system: ragweed (common ragweed, Ambrosia elatior); assay: Test C preemergence, plant response rating; details: scale 0 to 100; for Ragweed plant response rating: preemergence
Summary of the method: as §2

[8] = system: crabgrass, large (large crabgrass, Digitaria sanguinalis); assay: Test C preemergence, plant response rating; details: scale 0 to 100; for Crabgrass, Large plant response rating: preemergence
Summary of the method: as §2

[9] = system: blackgrass (Alopecurus myosuroides); assay: Test C preemergence, plant response rating; details: scale 0 to 100; for Blackgrass plant response rating: preemergence
Summary of the method: as §2

[10] = system: soybean (Glycine max); assay: Test C preemergence, plant response rating; details: scale 0 to 100; for Soybean plant response rating: preemergence
Summary of the method: as §2

[11] = system: foxtail, giant (giant foxtail, Setaria faberii); assay: Test C preemergence, plant response rating; details: scale 0 to 100; for Foxtail, Giant plant response rating: preemergence
Summary of the method: as §2

[12] = system: morningglory (Ipomoea coccinea); assay: Test C preemergence, plant response rating; details: scale 0 to 100; for Morningglory plant response rating: preemergence
Summary of the method: as §2

[13] = system: waterhemp (common waterhemp, Amaranthus rudis); assay: Test C preemergence, plant response rating; details: scale 0 to 100; for Waterhemp plant response rating: preemergence
Summary of the method: as §2

[14] = system: nutsedge, yellow (yellow nutsedge, Cyperus esculentus); assay: Test C preemergence, plant response rating; details: scale 0 to 100; for Nutsedge, Yellow plant response rating: preemergence
Summary of the method: as §2

[15] = system: ryegrass, Italian (Italian ryegrass, Lolium multiflorum); assay: Test C preemergence, plant response rating; details: scale 0 to 100; for Ryegrass, Italian plant response rating: preemergence
Summary of the method: as §2

[16] = system: lambsquarters (Chenopodium album); assay: Test C preemergence, plant response rating; details: scale 0 to 100; for Lambsquarters plant response rating: preemergence
Summary of the method: as §2

[17] = system: wheat (winter wheat, Triticum aestivum); assay: Test C preemergence, plant response rating; details: scale 0 to 100; for Wheat plant response rating: preemergence
Summary of the method: as §2

CCCOC(=O)c1c(Br)cccc1Oc1ncc(Cl)cn1 [Compound 13, propyl 2-bromo-6-[(5-chloro-2-pyrimidinyl)oxy]benzoate]
pest or weed control at 250 g/ha [1]: 75%
pest or weed control at 250 g/ha [2]: 0%
plant injury at 250 g/ha [3]: 30%
plant injury at 16 g/ha ([4]; Brassica napus, pre-emergence, Preemergence, 16 g ai/ha): 0%
plant injury at 31 g/ha ([4]; Brassica napus, pre-emergence, Preemergence, 31 g ai/ha): 50%
Oilseed Rape plant response rating ([4]; 4 g ai/ha): 0
Oilseed Rape plant response rating ([4]; 8 g ai/ha): 0
Corn plant response rating (crop injury, 0 = no effect, 100 = complete kill) at 16 g/ha ([5]; Zea mays, pre-emergence, Preemergence, 16 g ai/ha): 5%
Corn plant response rating (crop injury, 0 = no effect, 100 = complete kill) at 31 g/ha ([5]; Zea mays, pre-emergence, Preemergence, 31 g ai/ha): 10%
Corn plant response rating ([5]; 4 g ai/ha): 0
Corn plant response rating ([5]; 8 g ai/ha): 0
pest or weed control at 16 g/ha ([6]; Abutilon theophrasti, pre-emergence, Preemergence, 16 g ai/ha): 20%
pest or weed control at 31 g/ha ([6]; Abutilon theophrasti, pre-emergence, Preemergence, 31 g ai/ha): 70%
Velvetleaf plant response rating ([6]; 4 g ai/ha): 5
Velvetleaf plant response rating ([6]; 8 g ai/ha): 10
pest or weed control at 16 g/ha ([7]; Ambrosia artemisiifolia, pre-emergence, Preemergence, 16 g ai/ha): 0%
pest or weed control at 31 g/ha ([7]; Ambrosia artemisiifolia, pre-emergence, Preemergence, 31 g ai/ha): 10%
Ragweed plant response rating ([7]; 4 g ai/ha): 0
Ragweed plant response rating ([7]; 8 g ai/ha): 0
pest or weed control at 16 g/ha ([8]; Digitaria sanguinalis, pre-emergence, Preemergence, 16 g ai/ha): 60%
pest or weed control at 31 g/ha ([8]; Digitaria sanguinalis, pre-emergence, Preemergence, 31 g ai/ha): 85%
Crabgrass, Large plant response rating ([8]; 4 g ai/ha): 25
Crabgrass, Large plant response rating ([8]; 8 g ai/ha): 30
pest or weed control at 16 g/ha ([9]; Alopecurus myosuroides, pre-emergence, Preemergence, 16 g ai/ha): 0%
pest or weed control at 31 g/ha ([9]; Alopecurus myosuroides, pre-emergence, Preemergence, 31 g ai/ha): 0%
Blackgrass plant response rating ([9]; 4 g ai/ha): 0
Blackgrass plant response rating ([9]; 8 g ai/ha): 0
plant injury at 16 g/ha ([10]; Glycine max, pre-emergence, Preemergence, 16 g ai/ha): 5%
plant injury at 31 g/ha ([10]; Glycine max, pre-emergence, Preemergence, 31 g ai/ha): 5%
Soybean plant response rating ([10]; 4 g ai/ha): 0
Soybean plant response rating ([10]; 8 g ai/ha): 0
pest or weed control at 16 g/ha ([11]; Setaria faberi, pre-emergence, Preemergence, 16 g ai/ha): 0%
pest or weed control at 31 g/ha ([11]; Setaria faberi, pre-emergence, Preemergence, 31 g ai/ha): 95%
Foxtail, Giant plant response rating ([11]; 4 g ai/ha): 0
Foxtail, Giant plant response rating ([11]; 8 g ai/ha): 0
pest or weed control at 16 g/ha ([12]; Ipomoea, pre-emergence, Preemergence, 16 g ai/ha): 5%
pest or weed control at 31 g/ha ([12]; Ipomoea, pre-emergence, Preemergence, 31 g ai/ha): 5%
Morningglory plant response rating ([12]; 4 g ai/ha): 0
Morningglory plant response rating ([12]; 8 g ai/ha): 0
pest or weed control at 16 g/ha ([13]; Amaranthus tuberculatus, pre-emergence, Preemergence, 16 g ai/ha): 80%
pest or weed control at 31 g/ha ([13]; Amaranthus tuberculatus, pre-emergence, Preemergence, 31 g ai/ha): 100%
Waterhemp plant response rating ([13]; 4 g ai/ha): 5
Waterhemp plant response rating ([13]; 8 g ai/ha): 10
pest or weed control at 16 g/ha ([14]; Cyperus, pre-emergence, Preemergence, 16 g ai/ha): 0%
pest or weed control at 31 g/ha ([14]; Cyperus, pre-emergence, Preemergence, 31 g ai/ha): 5%
Nutsedge, Yellow plant response rating ([14]; 4 g ai/ha): 0
Nutsedge, Yellow plant response rating ([14]; 8 g ai/ha): 0
pest or weed control at 16 g/ha ([15]; Lolium multiflorum, pre-emergence, Preemergence, 16 g ai/ha): 0%
pest or weed control at 31 g/ha ([15]; Lolium multiflorum, pre-emergence, Preemergence, 31 g ai/ha): 0%
Ryegrass, Italian plant response rating ([15]; 4 g ai/ha): 0
Ryegrass, Italian plant response rating ([15]; 8 g ai/ha): 0
pest or weed control at 16 g/ha ([16]; Chenopodium album, pre-emergence, Preemergence, 16 g ai/ha): 50%
pest or weed control at 31 g/ha ([16]; Chenopodium album, pre-emergence, Preemergence, 31 g ai/ha): 15%
Lambsquarters plant response rating ([16]; 4 g ai/ha): 0
Lambsquarters plant response rating ([16]; 8 g ai/ha): 5
plant injury at 16 g/ha ([17]; Triticum aestivum, pre-emergence, Preemergence, 16 g ai/ha): 0%
plant injury at 31 g/ha ([17]; Triticum aestivum, pre-emergence, Preemergence, 31 g ai/ha): 5%
Wheat plant response rating ([17]; 4 g ai/ha): 0
Wheat plant response rating ([17]; 8 g ai/ha): 0
